Measurements from patent publication US20100234363A1, “HETEROCYCLIC DERIVATIVE HAVING INHIBITORY ACTIVITY ON TYPE-I 11 DATA-HYDROXYSTEROID DEHYDROGENASE” (INSTITUTE OF MEDICINAL MOLECULAR DESIGN, INC., priority 2007, published 2010).

Experiments:
Human 11β-HSD1 = Human 11β-HSD1 (Homo sapiens, UniProt P28845); assay: Evaluation of compound against human 11β-HSD1 (HTRF cortisol assay); type: biochemical; conditions: human 11β-HSD1, cortisone 5 μM substrate, 37° C. 2 hours
Protocol: Evaluation Method of 11β-HSD1 Inhibitor (Evaluation of Compound Against Human 11β-HSD1)
(§1) After preincubating an inhibitor in a reaction solution consisting of 50 mM sodium phosphate buffer (pH 7.6), bovine serum albumin (1 mg/mL), NADPH (0.42 mg/mL), glucose-6-phosphate (1.26 mg/mL), glucose-6-phosphate dehydrogenase and an enzyme at room temperature for 30 minutes, cortisone (5 μM) which is a substrate was added (total amount 10 μL). After reacting at 37° C. for 2 hours, an XL-665-labeled cortisol solution (5 μL), and a Cryptate-labeled anti-cortisol antibody solution (5 μL) were added, a reaction was performed at room temperature for 2 hours, and fluorescence intensity (HTRF method) was measured. A cortisol concentration was calculated from a standard curve prepared using a known concentration of cortisol for each assay.
(§2) Taking a concentration of cortisol generated in the absence of the inhibitor as a control value, 50% inhibitory concentration (IC50 value) of the inhibitor against 11β-HSD1 was calculated from an inhibition curve plotting inhibition rate against the control value at each concentration of an inhibitor.

Mouse 11β-HSD 1 = Mouse 11β-HSD 1 (Mus musculus, UniProt P50172); assay: Evaluation of compound against mouse 11β-HSD1 (HTRF corticosterone assay); type: biochemical; conditions: mouse 11β-HSD1, 11-dehydrocorticosterone 2 μM substrate, 37° C. 2 hours
Mouse 11β-HSD 1, sequence (P50172 whole entry): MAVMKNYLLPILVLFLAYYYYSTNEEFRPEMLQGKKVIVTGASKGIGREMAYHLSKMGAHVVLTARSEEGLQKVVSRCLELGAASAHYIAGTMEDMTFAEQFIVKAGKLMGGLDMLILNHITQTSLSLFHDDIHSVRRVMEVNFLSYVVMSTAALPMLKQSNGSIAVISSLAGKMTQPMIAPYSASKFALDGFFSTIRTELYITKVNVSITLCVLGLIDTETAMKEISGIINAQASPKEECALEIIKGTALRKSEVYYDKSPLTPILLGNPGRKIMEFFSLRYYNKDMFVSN
Protocol: Evaluation Method of 11β-HSD1 Inhibitor (Evaluation of Compound Against Mouse 11β-HSD 1)
as §1, with “glucose-6-phosphate dehydrogenase,” for “glucose-6-phosphate dehydrogenase”, “minutes, 11-dehydrocorticosterone (2” for “minutes, cortisone (5”, “A corticosterone” for “A cortisol”, “of corticosterone” for “of cortisol”
as §2, with “of corticosterone” for “of cortisol”, “of the” for “of an”

Human 11β-HSD1, sequence (P28845 whole entry): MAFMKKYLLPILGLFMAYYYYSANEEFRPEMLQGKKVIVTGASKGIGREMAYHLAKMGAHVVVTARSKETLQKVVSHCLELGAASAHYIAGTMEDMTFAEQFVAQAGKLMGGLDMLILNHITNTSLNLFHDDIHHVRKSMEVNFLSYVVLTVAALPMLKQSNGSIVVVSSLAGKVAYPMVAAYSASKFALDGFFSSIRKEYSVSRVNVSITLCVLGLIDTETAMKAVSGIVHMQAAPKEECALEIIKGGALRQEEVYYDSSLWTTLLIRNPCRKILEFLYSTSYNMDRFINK

Row | IC50 (Human 11β-HSD1) | IC50 (Mouse 11β-HSD 1) | SMILES
1 | 190 nM | 1490 nM | CN(C1=NC(=O)C2CCCCCC2S1)C(C)(C)C (stereo not drawn) [Compound I-158]
2 | 32 nM | 820 nM | CCN(C1=NC(=O)C2CC(C)(C)CCC2S1)c1ccccc1C(C)(C)C (stereo not drawn) [Compound I-175]
3 | 11 nM | 1640 nM | CCN(C1=NC(=O)C2CC(C)(C)CCC2S1)N1CCCCCC1 (stereo not drawn) [Compound I-195]
